Experimental data taken from DBAASP.
Values after ≈ are worked out from the molar mass of the structure shown.

Experiments:
Experiment in all cases: ≥ marks a high value that may be exact or a test limit, other limits are often not marked, values filed in µg/mL are converted to µM
Aspergillus flavus LM26 = system: Aspergillus flavus LM26
Aspergillus flavus LM247 = system: Aspergillus flavus LM247
[1] = system: Trichophyton rubrum LM640
Candida albicans LM106 = system: Candida albicans LM106
Candida albicans LM108 = system: Candida albicans LM108
[2] = system: Candida tropicalis ATCC 13803
Pseudomonas putida = system: Pseudomonas putida
Candida albicans = system: Candida albicans
[3] = system: Salmonella typhimurium ATCC 19430
Cryptococcus neoformans = system: Cryptococcus neoformans
Bacillus subtilis = system: Bacillus subtilis
[4] = system: Staphylococcus aureus ATCC 25923
Serratia marcescens = system: Serratia marcescens
[5] = system: Trichophyton rubrum KCTC 6345
[6] = system: Escherichia coli O157:H7 ATCC 43895
Escherichia coli = system: Escherichia coli
Salmonella typhimurium = system: Salmonella typhimurium
Streptococcus pneumoniae = system: Streptococcus pneumoniae
Staphylococcus aureus 1 = system: Staphylococcus aureus 1
[7] = system: Candida parapsilosis ATCC 22019
Pseudomonas aeruginosa = system: Pseudomonas aeruginosa
Bacillus subtilis SMY = system: Bacillus subtilis SMY
[8] = system: Escherichia coli ATCC 23716
Streptococcus mutans = system: Streptococcus mutans
[9] = system: Enterococcus faecium ATCC 19434
[10] = system: Pseudomonas aeruginosa ATCC 27853
Pseudomonas aeruginosa 1 = system: Pseudomonas aeruginosa 1
[11] = system: Trichosporon beigelii KCTC 7707
[12] = system: Candida albicans ATCC 90028
Saccharomyces cerevisiae = system: Saccharomyces cerevisiae
[13] = system: Pseudomonas aeruginosa ATCC 47085
[14] = system: Pseudomonas aeruginosa H188
[15] = system: Escherichia coli DH5alpha
[16] = system: Escherichia coli ATCC 25922
[17] = system: Pseudomonas aeruginosa ATCC 9027
[18] = system: Candida albicans ATCC 10231
[19] = system: Klebsiella pneumoniae ATCC 200603
[20] = system: Candida tropicalis PCM 2681
[21] = system: Bacillus subtilis ATCC 6633
[22] = system: Staphylococcus epidermidis ATCC 14490
Escherichia coli MG1655 = system: Escherichia coli MG1655
Escherichia coli JW5831 = system: Escherichia coli JW5831
Escherichia coli JW3441 = system: Escherichia coli JW3441

Q: Which results are given for `CC[C@H](C)[C@H](NC(=O)CNC(=O)[C@@H](NC(=O)[C@H](Cc1ccccc1)NC(=O)[C@H](CC(=O)O)NC(=O)[C@H](CCSC)NC(=O)[C@H](CC(=O)O)NC(=O)[C@H](C)N)[C@@H](C)O)C(=O)N[C@@H](C)C(=O)N[C@@H](CCC(=O)O)C(=O)N[C@@H](CO)C(=O)N[C@H](C(=O)N[C@H](C(=O)N[C@@H](CCCCN)C(=O)N[C@@H](CCCCN)C(=O)N[C@H](C(=O)N[C@@H](CCCCN)C(=O)N[C@@H](CCC(=O)O)C(=O)N[C@H](C(=O)N[C@@H](CC(N)=O)C(=O)N[C@@H](C)C(=O)N[C@@H](CCCCN)C(=O)N1CCC[C@H]1C(=O)N1CCC[C@H]1C(=O)N[C@@H](C)C(=O)O)[C@@H](C)O)[C@@H](C)CC)[C@@H](C)CC)[C@@H](C)CC` [ADMDFTGIAESIIKKIKETNAKPPA]?
A: MIC (Aspergillus flavus LM26): ≥ 47.6 µM; MIC (Aspergillus flavus LM247): ≥ 47.6 µM; MIC [1]: ≥ 381 µM; MIC (Candida albicans LM106): ≥ 47.6 µM; MIC (Candida albicans LM108): ≥ 381 µM; MIC [2]: ≥ 47.6 µM

Q: Which MIC (Pseudomonas putida) does the source give for `CC(C)C[C@H](NC(=O)CNC(=O)[C@H](C)N)C(=O)N[C@@H](CCC(N)=O)C(=O)N[C@@H](Cc1ccccc1)C(=O)N1CCC[C@H]1C(=O)N[C@H](C(=O)NCC(=O)N[C@@H](CCCN=C(N)N)C(=O)N[C@H](C(=O)N[C@@H](Cc1cnc[nH]1)C(=O)N[C@@H](CCCN=C(N)N)C(=O)N[C@@H](CC(C)C)C(=O)N[C@@H](CC(C)C)C(=O)N[C@@H](CCCN=C(N)N)C(=O)N[C@@H](CCCCN)C(=O)O)C(C)C)C(C)C` [AGLQFPVGRVHRLLRK] here?
A: 2.17 µM (≈ 4 µg/mL)

Q: And the MIC (Candida albicans)?
A: 4.33 µM (≈ 8 µg/mL)

Q: What about the MIC [3] of the same compound?
A: 6.3 µM (≈ 11.6 µg/mL)

Q: What about the MIC (Cryptococcus neoformans) of the same compound?
A: 4.33 µM (≈ 8 µg/mL)

Q: And the MIC (Bacillus subtilis)?
A: 2.17 µM (≈ 4 µg/mL)

Q: And the MIC [4]?
A: 25 µM (≈ 46.2 µg/mL)

Q: And the MIC (Serratia marcescens)?
A: 1.08 µM (≈ 2 µg/mL)

Q: And the MIC [5]?
A: 12.5 µM (≈ 23.1 µg/mL)

Q: What about the MIC [6] of the same compound?
A: 6.3 µM (≈ 11.6 µg/mL)

Q: What about the MIC (Escherichia coli) of the same compound?
A: 2.17 µM (≈ 4 µg/mL)

Q: What about the MIC (Salmonella typhimurium) of the same compound?
A: 1.08 µM (≈ 2 µg/mL)

Q: And the MIC (Streptococcus pneumoniae)?
A: 2.17 µM (≈ 4 µg/mL)

Q: What about the MIC (Staphylococcus aureus 1) of the same compound?
A: 12.5 µM (≈ 23.1 µg/mL)

Q: What about the MIC [7] of the same compound?
A: 25 µM (≈ 46.2 µg/mL)

Q: And the MIC (Pseudomonas aeruginosa)?
A: 12.5 µM (≈ 23.1 µg/mL)

Q: What about the MIC (Bacillus subtilis SMY) of the same compound?
A: ≥ 139 µM

Q: What about the MIC [8] of the same compound?
A: ≥ 139 µM

Q: And the MIC (Streptococcus mutans)?
A: 2.17 µM (≈ 4 µg/mL)

Q: And the MIC [9]?
A: 25 µM (≈ 46.2 µg/mL)

Q: And the MIC [10]?
A: 12.5 µM (≈ 23.1 µg/mL)

Q: What about the MIC (Pseudomonas aeruginosa 1) of the same compound?
A: 6.3 µM (≈ 11.6 µg/mL)

Q: What about the MIC [11] of the same compound?
A: 12.5 µM (≈ 23.1 µg/mL)

Q: And the MIC [12]?
A: 12.5 µM (≈ 23.1 µg/mL)

Q: What about the MIC (Saccharomyces cerevisiae) of the same compound?
A: 4.33 µM (≈ 8 µg/mL)

Q: What does the source list for `CC(C)C[C@H](NC(=O)CN)C(=O)N[C@@H](CC(C)C)C(=O)N[C@@H](CCCN=C(N)N)C(=O)N[C@@H](CCCCN)C(=O)N[C@@H](Cc1c[nH]c2ccccc12)C(=O)NCC(=O)N[C@@H](CCCCN)C(=O)N[C@@H](CCCCN)C(=O)N[C@@H](Cc1c[nH]c2ccccc12)C(=O)N[C@@H](CCCCN)C(=O)N[C@@H](CCC(=O)O)C(=O)N[C@@H](Cc1ccccc1)C(=O)N[C@@H](CC(C)C)C(=O)N[C@@H](CCCN=C(N)N)C(=O)N[C@@H](CCCN=C(N)N)C(=O)N[C@H](C(=O)N[C@@H](Cc1c[nH]c2ccccc12)C(=O)N[C@@H](CCCCN)C(N)=O)C(C)C` [GLLRKWGKKWKEFLRRVWK]?
A: MIC [13]: 12.7 µM (≈ 32 µg/mL); MIC [4]: 12.7 µM (≈ 32 µg/mL)

Q: `CC[C@H](C)[C@H](NC(=O)[C@H](C)NC(=O)[C@H](CCCCN)NC(=O)[C@H](CC(C)C)NC(=O)[C@H](C)NC(=O)[C@@H](NC(=O)[C@H](Cc1cnc[nH]1)NC(=O)[C@H](CC(C)C)NC(=O)[C@H](CCC(=O)O)NC(=O)[C@@H](NC(=O)[C@H](CCCCN)NC(=O)[C@H](CCCCN)NC(=O)[C@H](C)NC(=O)[C@H](CO)NC(=O)[C@H](CCCCN)NC(=O)[C@H](Cc1ccccc1)NC(=O)[C@@H](NC(=O)[C@H](CCCCN)NC(=O)[C@H](CC(C)C)NC(=O)[C@H](Cc1ccccc1)NC(=O)[C@H](CO)NC(=O)[C@H](CCCCN)NC(=O)[C@H](Cc1c[nH]c2ccccc12)NC(=O)[C@H](CCCCN)NC(C)=O)[C@@H](C)O)[C@@H](C)O)[C@@H](C)O)C(=O)N[C@@H](CO)C(=O)N[C@@H](CO)C(N)=O` [KWKSFLKTFKSAKKTELHTALKAISS] was tested. Which MIC [14] did it give?
A: 21.5 µM (≈ 64.9 µg/mL)

Q: And the MIC (Escherichia coli)?
A: 42 µM (≈ 127 µg/mL)

Q: What about the MIC [15] of the same compound?
A: 21.5 µM (≈ 64.9 µg/mL)

Q: And the MIC [10]?
A: 42 µM (≈ 127 µg/mL)

Q: And the MIC [16]?
A: 5.37 µM (≈ 16.2 µg/mL)

Q: `NC(=O)CC[C@H](NC(=O)[C@H](CCC(N)=O)NC(=O)[C@H](CCC(=O)O)NC(=O)[C@H](Cc1ccccc1)NC(=O)[C@H](CCC(=O)O)NC(=O)[C@H](Cc1c[nH]c2ccccc12)NC(=O)[C@H](CCC(=O)O)NC(=O)[C@H](Cc1ccccc1)NC(=O)[C@H](CCCN=C(N)N)NC(=O)[C@H](CCC(N)=O)NC(=O)[C@@H](N)CCC(N)=O)C(N)=O` [QQRFEWEFEQQ] was tested. Which MIC [17] did it give?
A: > 329 µM

Q: What about the MIC [4] of the same compound?
A: > 329 µM

Q: What about the MIC [18] of the same compound?
A: > 329 µM

Q: What about the MIC [19] of the same compound?
A: ≥ 329 µM

Q: What about the MIC [20] of the same compound?
A: ≥ 329 µM

Q: And the MIC [21]?
A: ≥ 329 µM

Q: And the MIC [16]?
A: > 329 µM

Q: And the MIC [22]?
A: ≥ 329 µM

Q: Which results are given for `CC[C@H](C)[C@H](NC(=O)[C@H](CCCCN)NC(=O)CNC(=O)[C@H](CC(C)C)NC(=O)[C@H](CC(C)C)NC(=O)[C@H](Cc1cnc[nH]1)NC(=O)[C@H](Cc1ccccc1)NC(=O)[C@@H](N)C(C)C)C(=O)N[C@H](C(=O)N[C@@H](Cc1cnc[nH]1)C(=O)N[C@@H](Cc1cnc[nH]1)C(=O)N[C@H](C(=O)NCC(=O)N[C@@H](CC(N)=O)C(=O)N[C@@H](Cc1ccccc1)C(=O)N[C@H](C(=O)N[C@@H](Cc1ccc(O)cc1)C(=O)NCC(=O)N[C@@H](Cc1ccccc1)C(=O)N[C@@H](CO)C(=O)N[C@@H](Cc1cnc[nH]1)C(=O)N[C@H](C(=O)N[C@@H](Cc1ccccc1)C(N)=O)C(C)C)C(C)C)C(C)C)[C@@H](C)CC` [VFHLLGKIIHHVGNFVYGFSHVF]?
A: MIC (Escherichia coli MG1655): 4 µM (≈ 10.7 µg/mL); MIC (Escherichia coli JW5831): 4 µM (≈ 10.7 µg/mL); MIC (Escherichia coli JW3441): 4 µM (≈ 10.7 µg/mL)
